Laboratory results taken from paper PMC12334443, “Biochemical Characterization of a Novel, Glucose-Tolerant β-Glucosidase from Jiangella ureilytica KC603, and Determination of Resveratrol Production Capacity from Polydatin” (Applied Biochemistry and Biotechnology, 2025).

Columns and labels:
Type in all cases: biochemical
JurBglKC603 [1] = target: T1, JurBglKC603 (Jiangella ureilytica, UniProt A0A4R4RWQ6, T2A); assay: glucose release by GOPOD assay, Lineweaver-Burk; conditions: 50 mM sodium citrate pH 6, 40 °C, 1 h; substrate 0.2-1 mM
T1 construct: gene E1212_03180; catalytic Glu165 and Glu356
T1 sequence (A0A4R4RWQ6 1-457 T2A): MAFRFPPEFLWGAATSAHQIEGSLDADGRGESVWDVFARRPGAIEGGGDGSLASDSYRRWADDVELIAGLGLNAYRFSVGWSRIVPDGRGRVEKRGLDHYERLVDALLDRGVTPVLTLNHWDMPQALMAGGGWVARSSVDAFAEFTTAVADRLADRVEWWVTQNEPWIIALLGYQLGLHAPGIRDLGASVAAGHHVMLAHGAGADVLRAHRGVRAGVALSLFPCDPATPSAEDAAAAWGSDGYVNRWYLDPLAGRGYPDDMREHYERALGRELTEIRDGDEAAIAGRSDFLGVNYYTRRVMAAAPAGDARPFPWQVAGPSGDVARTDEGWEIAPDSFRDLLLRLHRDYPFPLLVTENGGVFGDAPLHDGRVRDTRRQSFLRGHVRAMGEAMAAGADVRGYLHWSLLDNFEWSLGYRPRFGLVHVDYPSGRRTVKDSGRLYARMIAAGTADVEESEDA
Excerpt: glucose release by GOPOD assay, Lineweaver-Burk on JurBglKC603

JurBglKC603 [2] = target: T1, JurBglKC603; assay: pNPG hydrolysis with added glucose, relative activity; conditions: 3 M; 4 mM pNPG, 50 mM sodium citrate pH 6, 35 °C; glucose is also the reaction product
Excerpt: pNPG hydrolysis with added glucose, relative activity on JurBglKC603

JurBglKC603 [3] = target: T1, JurBglKC603; assay: pNP release at […] nm, Lineweaver-Burk; conditions: 50 mM sodium citrate pH 6, 35 °C; substrate 0.1-7 mM; read-out: Kinetic parameters / Km

With OC[C@H]1O[C@@H](Oc2cc(O)cc(/C=C/c3ccc(O)cc3)c2)[C@H](O)[C@@H](O)[C@@H]1O [polydatin] the Km (JurBglKC603 [1]) was 4600 µM.

OC[C@H]1OC(O)[C@H](O)[C@@H](O)[C@@H]1O (stereo partly drawn) [glucose] showed a Glucose tolerance (JurBglKC603 [2]) of 58%.

Work on O=[N+]([O-])c1ccc(O[C@@H]2O[C@H](CO)[C@@H](O)[C@H](O)[C@H]2O)cc1 [pNPG, para-nitrophenyl β-D-glucopyranoside] yielded a Km (JurBglKC603 [3]) of 440 µM.
